From the supplement of paper PMC8967900

Legend:
Assay in all cases: selective drug sensitivity score (sDSS, relative to normal bone marrow) (sDSS (score)); higher = more potent and effective on the cell line relative to normal bone marrow cells
Conditions in all cases: 72 h
MHH-CALL-2 = tested on: MHH-CALL-2
KASUMI-10 = tested on: KASUMI-10
PF-382 = tested on: PF-382
NALL-1 = tested on: NALL-1
COG-LL-319h = tested on: COG-LL-319h
TANOUE = tested on: TANOUE
RPMI-8402 = tested on: RPMI-8402
697 = tested on: 697
KASUMI-2 = tested on: KASUMI-2
SEM cells = tested on: SEM cells
KARPAS-45 = tested on: KARPAS-45
MHH-CALL-4 = tested on: MHH-CALL-4
TMD5 = tested on: TMD5
COG-LL-355h = tested on: COG-LL-355h
NALM-16 = tested on: NALM-16
ALL-SIL = tested on: ALL-SIL
P30-OHKUBO = tested on: P30-OHKUBO
CCRF-CEM = tested on: CCRF-CEM
NALM-6 = tested on: NALM-6
SUP-B15 = tested on: SUP-B15
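Also: ALL cell lines in 384-well plates, five doses spanning 10,000-fold, each plate scaled between vehicle and 100 µmol/L benzalkonium chloride controls, sDSS an adapted area-under-curve metric.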

Row | SMILES | selective drug sensitivity score (MHH-CALL-2) | selective drug sensitivity score (KASUMI-10) | selective drug sensitivity score (PF-382) | selective drug sensitivity score (NALL-1) | selective drug sensitivity score (COG-LL-319h) | selective drug sensitivity score (TANOUE) | selective drug sensitivity score (RPMI-8402) | selective drug sensitivity score 697 | selective drug sensitivity score (KASUMI-2) | selective drug sensitivity score (SEM cells) | selective drug sensitivity score (KARPAS-45) | selective drug sensitivity score (MHH-CALL-4) | selective drug sensitivity score (TMD5) | selective drug sensitivity score (COG-LL-355h) | selective drug sensitivity score (NALM-16) | selective drug sensitivity score (ALL-SIL) | selective drug sensitivity score (P30-OHKUBO) | selective drug sensitivity score (CCRF-CEM) | selective drug sensitivity score (NALM-6) | selective drug sensitivity score (SUP-B15)
1 | Cc1ccc(C(=O)Nc2ccc(Oc3cc4cnn(C)c4cc3-c3cn[nH]c3)c(F)c2)c(=O)n1-c1ccc(F)cc1 [Merestinib] (top concentration 1000 nM) | 9.68 | 14.8 | -0.62 | 8.28 | -0.62 | -0.62 | -0.62 | 0.48 | -0.62 | 19.8 | -0.62 | -0.42 | -0.62 | -0.62 | 2.58 | 0.28 | 0.88 | -0.62 | -0.62 | -0.62
2 | CCN1CCN(Cc2ccc(Nc3ncc(F)c(-c4cc(F)c5nc(C)n(C(C)C)c5c4)n3)nc2)CC1 [Abemaciclib] (top concentration 2500 nM) | -3.96 | -1.06 | -1.26 | -5.96 | 6.64 | -9.66 | 0.74 | 8.44 | 1.74 | -1.86 | -4.66 | -1.76 | -9.66 | 6.44 | -6.46 | -2.66 | 5.94 | -2.36 | -4.46 | 6.74
3 | Cc1cc(-c2nc(-c3ccc(OC(F)(F)F)cc3)no2)nn1Cc1ccnc(N2CCN(C3CC3)CC2)c1 [BAY_87-2243] (top concentration 1000 nM) | 8.64 | -6.66 | 16.9 | 0.04 | 2.54 | 25.2 | 28 | 18.7 | -8.66 | 6.84 | 16.5 | 11.9 | -1.16 | 10.8 | 4.24 | 10.1 | 6.44 | 6.34 | 10 | 14.1
4 | CC(C)NC(=O)COc1cccc(-c2nc(Nc3ccc4[nH]ncc4c3)c3ccccc3n2)c1 [KD025] (top concentration 5000 nM) | 3.94 | -5.36 | 1.04 | 2.54 | -1.06 | -5.36 | -2.36 | -0.66 | -5.06 | -2.96 | -2.76 | 1.04 | -3.16 | -0.86 | -1.16 | 1.24 | 1.84 | -0.66 | 1.14 | 2.14
5 | CC(C)C[C@H](NC(=O)CNC(=O)c1cc(Cl)ccc1Cl)B(O)O [Ixazomib] (top concentration 1000 nM) | 5.26 | 3.16 | 7.86 | 6.56 | 6.06 | -6.64 | 6.56 | 5.56 | 4.66 | 13.1 | 5.96 | 7.96 | 4.06 | 6.56 | 0.66 | 7.56 | 6.66 | 10.5 | 6.66 | 11.5
6 | N#Cc1ccc(COC[C@H]2O[C@@H](n3c(NCc4ccc(Cl)c(Cl)c4)nc4c(N)ncnc43)[C@H](O)[C@@H]2O)cc1 (top concentration 10000 nM) | 0.52 | -0.68 | 8.82 | -0.48 | 7.52 | 1.42 | 7.92 | 4.72 | -0.08 | 5.22 | 7.82 | -0.68 | -1.38 | 2.22 | -0.88 | 11.7 | 1.62 | 7.62 | 5.92 | 5.72
7 | COc1ccccc1S(=O)(=O)Nc1ccc2c(c1)CN(C)C(=O)N2 [PFI-1] (top concentration 30000 nM) | 3.5 | 3.5 | 1.8 | -4.1 | 16.2 | -3.2 | 2.5 | 3.7 | 2.4 | 4.7 | 3.1 | 2.7 | -4.5 | 8.7 | -1 | 2 | 6.1 | 1.4 | 1.7 | 8.5
